Reference: a melting point compilation (Tetko et al.)

SMILES	melting point [°C]
CN(C(=O)c1ccc(N)cc1)C1CCOCC1	170 to 172
O=C(CCCl)Nc1ccccc1Br	104 to 106
CCc1ccccc1NC(=O)CCl	106 to 108
Cc1sc2ncnc(N)c2c1C	257 to 259
Cc1ccccc1NC(=O)CC#N	133 to 135
O=C(O)c1ccc(-c2cccc(C(F)(F)F)c2)cc1F	208 to 210
CC(C)(C)OC(=O)N1CC(OCC(=O)O)C1	93 to 95
O=[N+]([O-])c1cccc(Cl)c1S(=O)(=O)Cl	81 to 83
CCCOc1ccc2c(c1)OCC(C(=O)O)C2 (stereo not drawn)	139 to 141
NC(=S)c1cc2ccccc2oc1=O	241 to 243
CC(C)(C)c1ccc(C(=O)Nc2ccc(O)cc2)cc1	196 to 198
CN(C)S(=O)(=O)c1cc(C(=O)O)ccc1Cl	239 to 241
O=C(O)c1cc(Cl)nc(N2CCOCC2)c1	222 to 224
COc1ccc(S(N)(=O)=O)cc1Br	139 to 141
O=C(O)C1CCN(C(=O)N2CCCC2)CC1	144 to 146
NNC(=O)c1cnn(-c2ccccc2)c1	179 to 181
CC(C)Oc1ccc2ccccc2c1C=O	65 to 67
O=C(O)CCCCc1cccc(O)c1	115 to 117
O=C(O)c1ccc(Cl)c(S(=O)(=O)NCC2CCCO2)c1 (stereo not drawn)	207 to 209
CN1CCN(c2cccc(Cl)c2C=O)CC1	80 to 82
CCOC(=O)c1sc(N)c(C(=O)OC(C)(C)C)c1C	90 to 92
c1cnc2[nH]cc(C3CCNCC3)c2c1	159 to 161
CC(C)(C)OC(=O)CNC(=O)CCl	66 to 68
O=C(c1ccccc1)c1cc(Cl)ccc1Cl	91 to 93

SMILES	melting point [°C]
CN(C)S(=O)(=O)c1ccc(I)c(C(=O)O)c1	198 to 200
CCNC(=O)c1cccc(N)c1	69 to 71
O=C(O)c1ccc(I)c(F)c1	233 to 235
CCOc1ccccc1C(=O)CBr	74 to 76
NNS(=O)(=O)Cc1ccccc1	131 to 133
O=C(O)c1ncncc1Cl	153 to 155
NC(=O)C1CCNc2ccccc21 (stereo not drawn)	119 to 121
CNCc1c(Cl)ncnc1N(C)C	43 to 45
Cc1ccc(-c2cnc(-c3ccccc3C(=O)O)o2)cc1	219 to 221
CCOc1ccc(-c2nnc(N)o2)cc1	238 to 240
CCOC(=O)Cc1nc2cc(Cl)ccc2s1	79 to 81
COc1ccc(NC(=O)C2(N)CCCC2)cc1OC	116 to 118
CCc1ccc(C(=O)O)cc1S(=O)(=O)Cl	181 to 183
CCOC(=O)c1c(N)sc2c1CCC(CC)C2 (stereo not drawn)	88 to 90
CC1(c2ccccc2F)NC(=O)NC1=O (stereo not drawn)	214 to 216
O=C(O)c1cc(S(=O)(=O)N2CCOCC2)c[nH]1	264 to 266
O=c1[nH]c(CNCc2ccccc2)nc2ccccc12	139 to 141
O=C(O)CCNS(=O)(=O)c1cccc(C(F)(F)F)c1	113 to 115
Cc1n[nH]c2ncc(N)cc12	186 to 188
ClCc1ccc(Oc2cccc(Cl)c2Cl)cc1	62 to 64
O=C(O)C1(c2cccc(Br)c2)CC1	143 to 145
Nc1cc(-c2cccc(Br)c2)no1	122 to 124
CC(C)(C)c1noc(C(N2CCOCC2)N2CCOCC2)n1	80 to 82
O=C(O)CCn1cnc2cc(F)c(F)cc21	157 to 159

SMILES	melting point [°C]
NS(=O)(=O)N1CCCC1	96 to 98
CCc1nnc2ccc(Cl)nn12	100 to 102
O=C(O)c1ccc(Cl)c(S(=O)(=O)NCc2ccco2)c1	133 to 135
COc1nc(N2CCNCC2)ncc1Br	89 to 91
CC(C)(C)c1ccc(C(=O)NC(=O)CCl)cc1	120 to 122
O=C1OCc2ccc(S(=O)(=O)Cl)cc21	104 to 106
COCCOc1c(Cl)cc(N)cc1Cl	58 to 60
O=C(O)CCNC(=O)c1ccncc1	239 to 241
CC1(c2ccccc2)CC(=O)NC(=O)C1	150 to 152
Nc1nc(-c2ccc(Cl)cc2)no1	248 to 250
Cc1ccc(C(=O)O)cc1S(=O)(=O)Cl	140 to 147
Nc1nnc(-c2ccco2)s1	250 to 252
Nc1cccc(C(=O)Nc2ccc(Br)cn2)c1	153 to 155
Oc1ccc2c(O)ccnc2c1	207 to 209
O=c1c2ccccc2nc(S)n1-c1nnc[nH]1	234 to 236
O=C(O)Cc1ccccc1OC(F)F	76 to 78
c1n[nH]cc1C1CCCNC1 (stereo not drawn)	71 to 73
COc1ccc(C=O)cc1OCC(N)=O	136 to 138
CC(N)(C(N)=O)c1ccccc1 (stereo not drawn)	114 to 116
CCOc1ccc(-c2cc(N)on2)cc1	126 to 128
CCOc1ccc(OCc2ccc(C(=O)NN)cc2)cc1	127 to 129
O=C(O)CN1c2cccc3cccc(c23)S1(=O)=O	216 to 218
CC(C)c1c(C(=O)O)cnn1-c1ccc(C(F)(F)F)cn1	168 to 170
CCOc1ccc(Br)cc1S(=O)(=O)Cl	109 to 111

SMILES	melting point [°C]
NC(=O)c1cc(Br)ccc1N	183 to 185
Nc1ccc(N2CCNC2=O)cc1	171 to 173
CC(C)CNC(=O)NC(=O)CCl	105 to 107
O=C(O)COc1cccc(Oc2ccccn2)c1	124 to 126
O=C1NC(=O)C2(CCc3cc(Cl)ccc32)N1 (stereo not drawn)	252 to 254
NC(=O)c1ccc(CCl)c([N+](=O)[O-])c1	115 to 117
Clc1cc(-c2nnco2)ccn1	109 to 111
CN1CCN(C(=O)Cc2cccc(N)c2)CC1	138 to 140
Cc1nccn1-c1ncccc1N	166 to 168
N#Cc1cc(F)ccc1N=C=O	31 to 33
CC(=O)c1c(C)nc2sccn12	132 to 134
O=C(O)C(=Cc1ccc(F)cc1)c1cccs1	185 to 187
CC1CNC(=Nc2ccc(C(C)C)cc2)S1 (stereo not drawn)	109 to 111
COc1cc(CC#N)cc(Cl)c1OCC(F)(F)F	98 to 100
CS(=O)(=O)c1cccc(OCC(=O)O)c1	110 to 112
Cc1cc(=O)[nH]c(-c2cccc(N)c2)n1	212 to 214
CC(C)CNc1c(N)n(CC(C)C)c(=O)[nH]c1=O	197 to 199
O=C(Nc1sccc1C(=O)O)c1ccc(Cl)cc1O	244 to 246
COc1cccc(N2C(=O)NC(=O)C2=O)c1	196 to 198
Cc1nccn1-c1ccc(F)cc1N	153 to 155
N#CCNc1cccc(F)c1	39 to 41
O=C(O)c1ccc(-c2ccncc2)[nH]c1=O	315 to 317
Cc1cc(O)c(C=O)cc1C	64 to 66
CC(N)C(O)c1c(F)cccc1F (stereo not drawn)	119 to 121

SMILES	melting point [°C]
CC(C)C(=O)c1ccc(S(=O)(=O)Cl)cc1	64 to 66
C/C(CC(=O)c1ccccc1)=N\c1ccccc1	110 to 112
O=C(O)C(=O)c1ccc2c(c1)CCCC2	70 to 72
O=C(CCl)N(Cc1ccc(F)cc1)C12CC3CC(CC(C3)C1)C2	129 to 131
Cn1cc(Nc2cccc(C(=O)O)c2)cn1	218 to 220
CCOC(=O)c1cc(N)cc(S(C)(=O)=O)c1	190 to 192
COCCOc1cn(-c2ccccc2)nc1C(=O)O	103 to 105
OCc1csc(-c2ccccn2)n1	95 to 97
CNc1ncc([N+](=O)[O-])cc1C#N	181 to 183
O=c1[nH]c(-c2cccc(C(F)(F)F)c2)cs1	182 to 184
CC1CNC(=O)CC(C)C1 (stereo not drawn)	122 to 124
NC(=O)c1cccc2ncccc12	228 to 230
Cc1cc(N)n(-c2ccccn2)n1	102 to 104
COc1nc(C(=O)O)cc2ccccc12	184 to 186
Cc1ccc(C)n1Cc1ccccc1Cl	87 to 89
CCOC(=O)/C(C#N)=C/Nc1ccc(Br)cc1	149 to 151
Nc1ccc(NC(=O)CCN2C(=O)CNC2=O)cc1	234 to 236
O=C(Nc1ccccc1)C1CCN(C(=O)CCl)CC1	143 to 145
CCc1cccc(CC)c1NC(=O)C(C)Cl (stereo not drawn)	166 to 168
CCOC(=O)c1ccc(C=O)o1	35 to 37
O=C1C=CC(=O)N1c1ccc(F)cc1	160 to 162
Fc1ccc(C2CNCCO2)cc1 (stereo not drawn)	56 to 58
Cc1ccc(CNC(=O)c2ccccc2N)cc1	140 to 142
Nc1ccccc1S(=O)(=O)N1CCOCC1	114 to 116

SMILES	melting point [°C]
O=C(NC=C(Cl)Cl)c1ccc(Br)cc1	110 to 112
O=C(O)c1ccc(Sc2ccc(Cl)cc2)o1	161 to 163
CC(C)NCc1nnc(-c2ccc([N+](=O)[O-])cc2)o1	175 to 182
CCCC(=O)Nc1ccc(CN)cc1	85 to 87
CC(C)(C)OC(=O)N1CCOCC1C#N (stereo not drawn)	95 to 97
CCOC(=O)c1c(N)sc2c1CCCS2=O (stereo not drawn)	189 to 191
CCc1ccccc1Nc1nc(N)nc(CCl)n1	146 to 149
Nc1cc2c(cc1NC(=O)c1cccs1)OCCO2	178 to 180
Sc1nnc(-c2ccco2)o1	173 to 175
Cc1cn2cc(Br)cc(C)c2n1	109 to 111
O=S(=O)(c1ccc(N2CCNCC2)nc1)N1CCOCC1	184 to 186
O=C(O)c1noc(-c2cc(F)ccc2F)n1	119 to 121
CN1CCN(CCOc2ccc(N)cc2)CC1	63 to 65
Sc1nnc(-c2ccncc2)n1-c1ccccc1	290 to 292
COc1cc(F)ccc1[N+](=O)[O-]	49 to 51
Cc1ccc(-n2nc(C(=O)O)ccc2=O)cc1Cl	240 to 242
COc1ccc(S(=O)(=O)N2CCCCCC2)cc1NC(=O)CCl	105 to 107
O=C(O)c1ccc[nH]1	204 to 208
Cc1c(N)cccc1NC(=O)c1ccccc1	193 to 195
Cc1ccc(-n2nc(C(=O)O)c3c2CCC3)c(C)c1	198 to 200
C#CCOc1ncccc1C(=O)O	120 to 122
O=c1[nH]c2ccccc2cc1CCl	199 to 201
CC(C)Cc1nc(C#N)c(NN)o1	102 to 104
